Earlier results on one substance are cited in US20170042798A1, “USE OF BIDENS EXTRACT TO REDUCE SIGNS OF SKIN AGING” (KIMBERLY-CLARK WORLDWIDE ,INC., priority 2014, published 2017).

For the series, the system named is 3T3-L1 cells. The note with it: literature, Nutr. Res. 32(6): 439-447.

With Fucoidan, the adipogenesis entry was “inhibit adipogenesis”.
